Where two headings read alike, the source gives them in different places.
Assays:
[1] = Acute toxicity in rats after a single intramuscular injection; format: in vivo, Wistar rats
[2] = rat, in vivo
[3] = system: A/Aichi/2/69 (H3N2) influenza virus; experiment: Induced influenza pneumonia in mice; settings: for Average lifetime (days) / Death rate (%) / Percent death protection (%) / Survival (survivors/total): observation day 16
[4] = system: human lymphoblastoid cells; experiment: Cytotoxicity in human lymphoblastoid cells model
[5] = system: solid Ehrlich carcinoma; experiment: Solid Ehrlich carcinoma in white mice, tumor size dynamics
[6] = Chronic toxicity in rats: autopsy and weight coefficients of viscera; settings: any of the tested doses; after the end of administration
[7] = intraperitoneally 100 mg/kg/day

## N-fullerene tris(δ-aminocaproic acid) hydrate [Agent 1]
[1]; 5, 50 and 500 mg/kg single i.m.
  death during the 14-day observation period: No death occurred
[1]; females, 5 mg/kg single intramuscular, day 0
  Animal body weight (M ± SD): 163 ± 15.5 g
[1]; females, 50 mg/kg single intramuscular, day 0
  Animal body weight (M ± SD): 165 ± 17.5 g
[1]; females, 500 mg/kg single intramuscular, day 0
  Animal body weight (M ± SD): 160 ± 8.1 g
[1]; females, 500 mg/kg single intramuscular, day 7
  Animal body weight (M ± SD): 169 ± 8.0 g
[1]; males, 5 mg/kg single intramuscular, day 7
  Animal body weight (M ± SD): 228 ± 18.1 g
[1]; males, 5 mg/kg single intramuscular, day 14
  Animal body weight (M ± SD): 276 ± 17.8 g
[1]; males, 50 mg/kg single intramuscular, day 7
  Animal body weight (M ± SD): 228 ± 17.0 g
[1]; males, 50 mg/kg single intramuscular, day 14
  Animal body weight (M ± SD): 279 ± 18.3 g
[1]; males, 500 mg/kg single intramuscular, day 14
  Animal body weight (M ± SD): 258 ± 24.1 g
[1]; single intramuscular administration, exceeds the maximal tested dose
  LD50: > 500 mg/kg
[2]; 3 mg/kg
  Glucose: number of animals with values going beyond the limits: 0
  Leukocytes: number of animals with values going beyond the limits: 3
[2]; 9 mg/kg
  Protein: number of animals with values going beyond the limits: 3
[2]; 20 mg/kg
  Bilirubin: number of animals with values going beyond the limits: 0
  Erythrocytes: number of animals with values going beyond the limits: 5
  Glucose: number of animals with values going beyond the limits: 0
  Nitrites: number of animals with values going beyond the limits: 1
females, 5 mg/kg single i.m., day 0
  Animal body weight, g (M ± SD): 19.1 ± 2. g
females, 5 mg/kg single i.m., day 7
  Animal body weight, g (M ± SD): 20.6 ± 2 g
females, 5 mg/kg single i.m., day 14
  Animal body weight, g (M ± SD): 22.8 ± 2. g
females, 50 mg/kg single i.m., day 0
  Animal body weight, g (M ± SD): 18.6 ± 1. g
females, 50 mg/kg single i.m., day 7
  Animal body weight, g (M ± SD): 19.9 g
females, 50 mg/kg single i.m., day 14
  Animal body weight, g (M ± SD): 21.9 ± 1. g
females, 500 mg/kg single i.m., day 0
  Animal body weight, g (M ± SD): 18.9 ± 1. g
females, 500 mg/kg single i.m., day 7
  Animal body weight, g (M ± SD): 20.7 ± 0 g
females, 500 mg/kg single i.m., day 14
  Animal body weight, g (M ± SD): 22.8 ± 1. g
males, 5 mg/kg single i.m., day 0
  Animal body weight, g (M ± SD): 23.0 ± 2.9 g
males, 5 mg/kg single i.m., day 7
  Animal body weight, g (M ± SD): 24.1 ± 2 g
males, 5 mg/kg single i.m., day 14
  Animal body weight, g (M ± SD): 25.4 ± 2. g
males, 50 mg/kg single i.m., day 0
  Animal body weight, g (M ± SD): 22.4 ± 2.1 g
males, 50 mg/kg single i.m., day 7
  Animal body weight, g (M ± SD): 23.7 ± 2 g
males, 50 mg/kg single i.m., day 14
  Animal body weight, g (M ± SD): 25.4 ± 2. g
males, 500 mg/kg single i.m., day 0
  Animal body weight, g (M ± SD): 22.6 ± 2.2 g
males, 500 mg/kg single i.m., day 7
  Animal body weight, g (M ± SD): 24.2 ± 1 g
males, 500 mg/kg single i.m., day 14
  Animal body weight, g (M ± SD): 26.2 ± 1. g
Mice and rats, after a single intramuscular injection
  local irritant effect: does not cause a local irritant effect
mice, 5, 50 and 500 mg/kg single i.m.
  death during the 14-day observation period: No death occurred
mice, single intramuscular administration, exceeds the maximal tested dose
  LD50: > 500 mg/kg
[3]; intramuscularly 50 mg/kg/day, day 1 post infection
  Percent body weight change: +9%
[3]; intramuscularly 50 mg/kg/day, day 2 post infection
  Percent body weight change: +14%
[3]; intramuscularly 50 mg/kg/day, day 3 post infection
  Percent body weight change: +21%
[3]; intramuscularly 50 mg/kg/day, day 4 post infection
  Percent body weight change: +26%
[3]; intramuscularly 50 mg/kg/day, day 5 post infection
  Percent body weight change: +30%
[3]; intramuscularly 50 mg/kg/day, day 7 post infection
  Percent body weight change: +27%
[3]; intramuscularly 50 mg/kg/day, day 9 post infection
  Percent body weight change: +38%
[3]; intramuscularly 50 mg/kg/day, day 11 post infection
  Percent body weight change: +64%
[3]; intramuscularly 50 mg/kg/day, day 13 post infection
  Percent body weight change: +74%
[3]; intramuscularly 50 mg/kg/day
  Average lifetime (days): 12.4 (1-7 d., 1-9 d., 2-11 d) days
  Death rate (%): 40%
  Percent death protection (%): 50%
  Survival (survivors/total): 6/10
[3]; intramuscularly 100 mg/kg/day, day 1 post infection
  Percent body weight change: +13%
[3]; intramuscularly 100 mg/kg/day, day 2 post infection
  Percent body weight change: +17%
[3]; intramuscularly 100 mg/kg/day, day 3 post infection
  Percent body weight change: +23%
[3]; intramuscularly 100 mg/kg/day, day 4 post infection
  Percent body weight change: +28%
[3]; intramuscularly 100 mg/kg/day, day 5 post infection
  Percent body weight change: +31%
[3]; intramuscularly 100 mg/kg/day, day 7 post infection
  Percent body weight change: +39%
[3]; intramuscularly 100 mg/kg/day, day 9 post infection
  Percent body weight change: +65%
[3]; intramuscularly 100 mg/kg/day, day 11 post infection
  Percent body weight change: +7%
[3]; intramuscularly 100 mg/kg/day, day 13 post infection
  Percent body weight change: +82%
[3]; intramuscularly 100 mg/kg/day
  Average lifetime (days): 13.5 (1-8 d, 1-9 d) days
  Death rate (%): 20%
  Percent death protection (%): 70%
  Survival (survivors/total): 8/10
[3]; intramuscularly 200 mg/kg/day, day 1 post infection
  Percent body weight change: +11%
[3]; intramuscularly 200 mg/kg/day, day 2 post infection
  Percent body weight change: +20%
[3]; intramuscularly 200 mg/kg/day, day 3 post infection
  Percent body weight change: +26%
[3]; intramuscularly 200 mg/kg/day, day 4 post infection
  Percent body weight change: +35%
[3]; intramuscularly 200 mg/kg/day, day 5 post infection
  Percent body weight change: +39%
[3]; intramuscularly 200 mg/kg/day, day 7 post infection
  Percent body weight change: +43%
[3]; intramuscularly 200 mg/kg/day, day 9 post infection
  Percent body weight change: +51%
[3]; intramuscularly 200 mg/kg/day, day 11 post infection
  Percent body weight change: +62%
[3]; intramuscularly 200 mg/kg/day, day 13 post infection
  Percent body weight change: +70%
[3]; intramuscularly 200 mg/kg/day
  Average lifetime (days): 14.4 (1-10 d) days
  Death rate (%): 10%
  Percent death protection (%): 80%
  Survival (survivors/total): 9/10
[3]; intraperitoneal, 200 mg/kg/day
  tolerability in infected mice: toxic
[3]; intraperitoneally 50 mg/kg/day, day 1 post infection
  Percent body weight change: +11%
[3]; intraperitoneally 50 mg/kg/day, day 2 post infection
  Percent body weight change: +17%
[3]; intraperitoneally 50 mg/kg/day, day 3 post infection
  Percent body weight change: +22%
[3]; intraperitoneally 50 mg/kg/day, day 4 post infection
  Percent body weight change: +25%
[3]; intraperitoneally 50 mg/kg/day, day 5 post infection
  Percent body weight change: +28%
[3]; intraperitoneally 50 mg/kg/day, day 7 post infection
  Percent body weight change: +35%
[3]; intraperitoneally 50 mg/kg/day, day 9 post infection
  Percent body weight change: +41%
[3]; intraperitoneally 50 mg/kg/day, day 11 post infection
  Percent body weight change: +67%
[3]; intraperitoneally 50 mg/kg/day, day 13 post infection
  Percent body weight change: +77%
[3]; intraperitoneally 50 mg/kg/day
  Average lifetime (days): 11.5 (1-5 d., 1-7 d., 3-11 d.) days
  Death rate (%): 50%
  Percent death protection (%): 40%
  Survival (survivors/total): 5/10
[3]; intraperitoneally 100 mg/kg/day, day 1 post infection
  Percent body weight change: +9%
[3]; intraperitoneally 100 mg/kg/day, day 2 post infection
  Percent body weight change: +15%
[3]; intraperitoneally 100 mg/kg/day, day 3 post infection
  Percent body weight change: +19%
[3]; intraperitoneally 100 mg/kg/day, day 4 post infection
  Percent body weight change: +21%
[3]; intraperitoneally 100 mg/kg/day, day 5 post infection
  Percent body weight change: +21%
[3]; intraperitoneally 100 mg/kg/day, day 7 post infection
  Percent body weight change: +27%
[3]; intraperitoneally 100 mg/kg/day, day 9 post infection
  Percent body weight change: +37%
[3]; intraperitoneally 100 mg/kg/day, day 11 post infection
  Percent body weight change: +50%
[3]; intraperitoneally 100 mg/kg/day, day 13 post infection
  Percent body weight change: +82%
[3]; [7]
  Average lifetime (days): 11.0 (3-7 d., 1-8 d., 1-11 d) days
  Death rate (%): 50%
  Percent death protection (%): 40%
  Survival (survivors/total): 5/10
[3]; orally 100 mg/kg/day, day 1 post infection
  Percent body weight change: +12%
[3]; orally 100 mg/kg/day, day 2 post infection
  Percent body weight change: +17%
[3]; orally 100 mg/kg/day, day 3 post infection
  Percent body weight change: +23%
[3]; orally 100 mg/kg/day, day 4 post infection
  Percent body weight change: +25%
[3]; orally 100 mg/kg/day, day 5 post infection
  Percent body weight change: +24%
[3]; orally 100 mg/kg/day, day 7 post infection
  Percent body weight change: +21%
[3]; orally 100 mg/kg/day, day 9 post infection
  Percent body weight change: +23%
[3]; orally 100 mg/kg/day, day 11 post infection
  Percent body weight change: +34%
[3]; orally 100 mg/kg/day, day 13 post infection
  Percent body weight change: +44%
[3]; orally 100 mg/kg/day
  Average lifetime (days): 10.4 (2-7 d., 1-9 d., 1-10 d) days
  Death rate (%): 50%
  Percent death protection (%): 40%
  Survival (survivors/total): 5/10
[3]; orally 200 mg/kg/day, day 1 post infection
  Percent body weight change: +15%
[3]; orally 200 mg/kg/day, day 2 post infection
  Percent body weight change: +20%
[3]; orally 200 mg/kg/day, day 3 post infection
  Percent body weight change: +23%
[3]; orally 200 mg/kg/day, day 4 post infection
  Percent body weight change: +25%
[3]; orally 200 mg/kg/day, day 5 post infection
  Percent body weight change: +24%
[3]; orally 200 mg/kg/day, day 7 post infection
  Percent body weight change: +22%
[3]; orally 200 mg/kg/day, day 9 post infection
  Percent body weight change: +25%
[3]; orally 200 mg/kg/day, day 11 post infection
  Percent body weight change: +45%
[3]; orally 200 mg/kg/day, day 13 post infection
  Percent body weight change: +57%
[3]; orally 200 mg/kg/day
  Average lifetime (days): 13.0 (1-7 d., 1-10 d., 1-11 d) days
  Death rate (%): 30%
  Percent death protection (%): 60%
  Survival (survivors/total): 7/10
[4]; 0.5 mcg/mL
  Cell survival rate, %: 95%
  Number of cells × 10^3/mL: 633 10^3/mL
[4]; 1.0 mcg/mL
  Cell survival rate, %: 94%
  Number of cells × 10^3/mL: 599 10^3/mL
[4]; 5.0 mcg/mL
  Cell survival rate, %: 96%
  Number of cells × 10^3/mL: 530 10^3/mL
[4]; 10.0 mcg/mL
  Cell survival rate, %: 92%
  Number of cells × 10^3/mL: 500 10^3/mL
[4]; 100 mcg/mL
  Cell survival rate, %: 70%
  Number of cells × 10^3/mL: 433 10^3/mL
[5]; 100 mg/kg, day 8 post transplantation
  Tumor size (mm^3): 72.5 mm^3
[5]; 100 mg/kg, day 13 post transplantation
  Tumor size (mm^3): 544.3 mm^3
[5]; 100 mg/kg, day 17 post transplantation
  Tumor size (mm^3): 693.6 mm^3
[5]; 100 mg/kg, day 21 post transplantation
  Tumor size (mm^3): 1250.8 mm^3
[5]; 100 mg/kg, day 24 post transplantation
  Tumor size (mm^3): 1654.3 mm^3
[5]; 100 mg/kg, day 28 post transplantation
  Tumor size (mm^3): 2239.8 mm^3
[5]; 300 mg/kg, day 8 post transplantation
  Tumor size (mm^3): 72.7 mm^3
[5]; 300 mg/kg, day 13 post transplantation
  Tumor size (mm^3): 416.3 mm^3
[5]; 300 mg/kg, day 17 post transplantation
  Tumor size (mm^3): 1224.6 mm^3
[5]; 300 mg/kg, day 21 post transplantation
  Tumor size (mm^3): 1703.4 mm^3
[5]; 300 mg/kg, day 24 post transplantation
  Tumor size (mm^3): 2048.5 mm^3
[5]; 300 mg/kg, day 28 post transplantation
  Tumor size (mm^3): 2525.7 mm^3
[6]
  autopsy finding at the injection site (skeletal muscles): a brownish color of muscle tissue, fascia, and fat layers was noticed

Source: patent US9096492B2, “Hydrated N-fullerene amino acids, method for producing the latter, and pharmaceutical compositions on the basis thereof” (priority 2011, dated 2015)
